This series relates to CCRIS mutagenicity, Ames/micronucleus/aberration tests. Briefly: CCRIS mutagenicity studies.
Where [1] appears, read: Test System: AMES SALMONELLA TYPHIMURIUM, Strain/Indicator: TA98, Metabolic Activation: NONE, Method: STANDARD PLATE.
Where [2] appears, read: Test System: AMES SALMONELLA TYPHIMURIUM, Strain/Indicator: TA98, Metabolic Activation: RAT, LIVER, S-9, AROCLOR 1254, Method: STANDARD PLATE.
Setting [3] is: Test System: AMES SALMONELLA TYPHIMURIUM, Strain/Indicator: TA100, Metabolic Activation: NONE, Method: STANDARD PLATE.

Activity calls are given as the source filed them. The rule behind the calls is not given here.

For `CC1CC(OC(=O)c2ccccc2O)CC(C)(C)C1` (configuration not stated), the mutagenic call is “inactive; negative” (Test System: AMES SALMONELLA TYPHIMURIUM, Strain/Indicator: TA98, Metabolic Activation: HAMSTER, LIVER, S-9, AROCLOR 1254 (10%), Method: PREINCUBATION); “inactive; negative” (Test System: AMES SALMONELLA TYPHIMURIUM, Strain/Indicator: TA98, Metabolic Activation: NONE, Method: PREINCUBATION); “inactive; negative” (Test System: AMES SALMONELLA TYPHIMURIUM, Strain/Indicator: TA98, Metabolic Activation: RAT, LIVER, S-9, AROCLOR 1254 (10%), Method: PREINCUBATION); “inactive; negative” (Test System: AMES SALMONELLA TYPHIMURIUM, Strain/Indicator: TA100, Metabolic Activation: HAMSTER, LIVER, S-9, AROCLOR 1254 (10%), Method: PREINCUBATION); “inactive; negative” (Test System: AMES SALMONELLA TYPHIMURIUM, Strain/Indicator: TA100, Metabolic Activation: NONE, Method: PREINCUBATION); “inactive; negative” (Test System: AMES SALMONELLA TYPHIMURIUM, Strain/Indicator: TA100, Metabolic Activation: RAT, LIVER, S-9, AROCLOR 1254 (10%), Method: PREINCUBATION). The mutagenic call by setting is: (Test System: AMES SALMONELLA TYPHIMURIUM, Strain/Indicator: TA1535, Metabolic Activation: HAMSTER, LIVER, S-9, AROCLOR 1254 (10%), Method: PREINCUBATION) “inactive; negative”; (Test System: AMES SALMONELLA TYPHIMURIUM, Strain/Indicator: TA1535, Metabolic Activation: NONE, Method: PREINCUBATION) “inactive; negative”; (Test System: AMES SALMONELLA TYPHIMURIUM, Strain/Indicator: TA1535, Metabolic Activation: RAT, LIVER, S-9, AROCLOR 1254 (10%), Method: PREINCUBATION) “inactive; negative”; (Test System: AMES SALMONELLA TYPHIMURIUM, Strain/Indicator: TA1537, Metabolic Activation: HAMSTER, LIVER, S-9, AROCLOR 1254 (10%), Method: PREINCUBATION) “inactive; negative”; (Test System: AMES SALMONELLA TYPHIMURIUM, Strain/Indicator: TA1537, Metabolic Activation: NONE, Method: PREINCUBATION) “inactive; negative”; (Test System: AMES SALMONELLA TYPHIMURIUM, Strain/Indicator: TA1537, Metabolic Activation: RAT, LIVER, S-9, AROCLOR 1254 (10%), Method: PREINCUBATION) “inactive; negative”.

With `C[C@]12CC[C@H](O)C[C@@H]1CC[C@@H]1[C@@H]2CC[C@]2(C)NC(=O)CC[C@@H]12`, the mutagenic call by setting is: under setting [1], “inactive; negative”; under setting [2], “inactive; negative”; under setting [3], “inactive; negative”; (Test System: AMES SALMONELLA TYPHIMURIUM, Strain/Indicator: TA100, Metabolic Activation: RAT, LIVER, S-9, AROCLOR 1254, Method: STANDARD PLATE) “inactive; negative”; (Test System: AMES SALMONELLA TYPHIMURIUM, Strain/Indicator: TA1535, Metabolic Activation: NONE, Method: STANDARD PLATE) “inactive; negative”; (Test System: AMES SALMONELLA TYPHIMURIUM, Strain/Indicator: TA1535, Metabolic Activation: RAT, LIVER, S-9, AROCLOR 1254, Method: STANDARD PLATE) “inactive; negative”. In addition, the mutagenic call is “inactive; negative” (Test System: AMES SALMONELLA TYPHIMURIUM, Strain/Indicator: TA1537, Metabolic Activation: NONE, Method: STANDARD PLATE) and “inactive; negative” (Test System: AMES SALMONELLA TYPHIMURIUM, Strain/Indicator: TA1537, Metabolic Activation: RAT, LIVER, S-9, AROCLOR 1254, Method: STANDARD PLATE).

Take `CN(N=O)c1ccccc1`: the mutagenic call (Test System: AMES SALMONELLA TYPHIMURIUM, Strain/Indicator: HISG428, Metabolic Activation: RAT, LIVER, S-9, AROCLOR 1254, Method: PREINCUBATION) is “inactive; negative”; the mutagenic call (Test System: AMES SALMONELLA TYPHIMURIUM, Strain/Indicator: TA100, Metabolic Activation: RAT, LIVER, S-9, AROCLOR 1254, Method: PREINCUBATION) was “active; positive”; the mutagenic call (Test System: AMES SALMONELLA TYPHIMURIUM, Strain/Indicator: TA104, Metabolic Activation: RAT, LIVER, S-9, AROCLOR 1254, Method: PREINCUBATION) is “active; positive”; the mutagenic call (Test System: AMES SALMONELLA TYPHIMURIUM, Strain/Indicator: TA1537, Metabolic Activation: RAT, LIVER, S-9, PHENOBARBITAL, Method: STANDARD PLATE) is “inactive; negative”; the mutagenic call (Test System: AMES SALMONELLA TYPHIMURIUM, Strain/Indicator: TA1537, Metabolic Activation: RAT, LIVER, S-9, PYRAZOLE, Method: STANDARD PLATE) is “active; positive”; the mutagenic call (Test System: AMES SALMONELLA TYPHIMURIUM, Strain/Indicator: TA1537, Metabolic Activation: RAT, LIVER, S-9, Method: LIQUID INCUBATION) was “active; positive”. For the same compound, the mutagenic call (Test System: AMES SALMONELLA TYPHIMURIUM, Strain/Indicator: TA2638, Metabolic Activation: RAT, LIVER, S-9, AROCLOR 1254, Method: PREINCUBATION) was “active; positive”; the mutagenic call (Test System: AMES SALMONELLA TYPHIMURIUM, Strain/Indicator: TA2659, Metabolic Activation: RAT, LIVER, S-9, AROCLOR 1254, Method: PREINCUBATION) is “inactive; negative”; the mutagenic call (Test System: AMES SALMONELLA TYPHIMURIUM, Strain/Indicator: YG7108-2A6-OR, Metabolic Activation: NONE, Method: PREINCUBATION) was “active; positive”; the mutagenic call (Test System: AMES SALMONELLA TYPHIMURIUM, Strain/Indicator: YG7108-2A6, Metabolic Activation: NONE, Method: PREINCUBATION) is “active; positive”; the mutagenic call (Test System: AMES SALMONELLA TYPHIMURIUM, Strain/Indicator: YG7108-PCW, Metabolic Activation: NONE, Method: PREINCUBATION) is “inactive; negative”; the mutagenic call (Test System: AMES SALMONELLA TYPHIMURIUM, Strain/Indicator: YG7108, Metabolic Activation: RAT LIVER S-9, PHENOBARBITAL AND 5,6-BENZOFLAVONE, Method: PREINCUBATION) is “inactive; negative”.

`CCn1cc(C(=O)O)c(=O)c2cc3c(cc21)OCO3`: the mutagenic call by setting is: (Test System: AMES SALMONELLA TYPHIMURIUM, Strain/Indicator: TA102, Metabolic Activation: NONE, Method: STANDARD PLATE) “active; positive”; (Test System: AMES SALMONELLA TYPHIMURIUM, Strain/Indicator: TA2638, Metabolic Activation: NONE, Method: STANDARD PLATE) “active; positive”; (Test System: E. COLI, Strain/Indicator: WP2 (PKM101), Metabolic Activation: NONE, Method: STANDARD PLATE) “active; positive”; (Test System: E. COLI, Strain/Indicator: WP2 UVRA (PKM101), Metabolic Activation: NONE, Method: STANDARD PLATE) “active; positive”.

For the compound `O=C(O)CC(O)(CC(=O)O)C(=O)O`, the mutagenic call is “inactive; negative” (Test System: AMES SALMONELLA TYPHIMURIUM, Strain/Indicator: TA97, Metabolic Activation: NONE, Method: PREINCUBATION); “inactive; negative” (Test System: AMES SALMONELLA TYPHIMURIUM, Strain/Indicator: TA97, Metabolic Activation: NONE, Method: STANDARD PLATE); “inactive; negative” (Test System: AMES SALMONELLA TYPHIMURIUM, Strain/Indicator: TA97, Metabolic Activation: RAT, LIVER, S-9, AROCLOR 1254, Method: PREINCUBATION); “inactive; negative” (Test System: AMES SALMONELLA TYPHIMURIUM, Strain/Indicator: TA97, Metabolic Activation: RAT, LIVER, S-9, PHENOBARBITAL, Method: STANDARD PLATE); “inactive; negative” (Test System: AMES SALMONELLA TYPHIMURIUM, Strain/Indicator: TA97, Metabolic Activation: S-9, Method: PREINCUBATION); “inactive; negative” under setting [1]. The mutagenic call (Test System: AMES SALMONELLA TYPHIMURIUM, Strain/Indicator: TA98, Metabolic Activation: RAT, LIVER, S-9, PHENOBARBITAL, Method: STANDARD PLATE) was “inactive; negative”; the mutagenic call under setting [3] is “inactive; negative”; the mutagenic call (Test System: AMES SALMONELLA TYPHIMURIUM, Strain/Indicator: TA100, Metabolic Activation: RAT, LIVER, S-9, PHENOBARBITAL, Method: STANDARD PLATE) was “inactive; negative”; the mutagenic call (Test System: AMES SALMONELLA TYPHIMURIUM, Strain/Indicator: TA102, Metabolic Activation: NONE, Method: PREINCUBATION) is “inactive; negative”; the mutagenic call (Test System: AMES SALMONELLA TYPHIMURIUM, Strain/Indicator: TA102, Metabolic Activation: RAT, LIVER, S-9, AROCLOR 1254, Method: PREINCUBATION) was “inactive; negative”; the mutagenic call (Test System: AMES SALMONELLA TYPHIMURIUM, Strain/Indicator: TA102, Metabolic Activation: S-9, Method: PREINCUBATION) was “inactive; negative”. Also, the mutagenic call is “inactive; negative” (Test System: AMES SALMONELLA TYPHIMURIUM, Strain/Indicator: TA104, Metabolic Activation: NONE, Method: STANDARD PLATE) and “inactive; negative” (Test System: AMES SALMONELLA TYPHIMURIUM, Strain/Indicator: TA104, Metabolic Activation: RAT, LIVER, S-9, PHENOBARBITAL, Method: STANDARD PLATE).

As to `CC(C)(C)NCC(O)COc1ccccc1C1=CCCC1` (configuration not stated), the mutagenic call by setting is: under setting [1], “inactive; negative”; under setting [2], “inactive; negative”.

Source of the values: PubChem BioAssay AID1259407 (Chemical Carcinogenesis Research Information System (CCRIS), 2018).
